Consider eight compounds from PubChem BioAssay (NCI).

Test systems include 786-0 renal; ACHN renal; BT-549 breast; CAKI-1 renal; HCC-2998 colon; HCT-15 colon; HS 578T breast; KM12 colon; LOX IMVI melanoma; MOLT-4 leukemia; NCI-H226 lung; OVCAR-4 ovarian; PC-3 prostate; RPMI-8226 leukemia; SK-MEL-2 melanoma; SK-MEL-28 melanoma; SNB-19 CNS; A498 renal; COLO 205 colon; SNB-75 CNS.
What all share (experiment): NCI anticancer screen, dose series, 48 h

Each structure is given as a SMILES string.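 Where inhibition never reached the appropriate level, the endpoint shown equals the highest concentration tested. Otherwise, values were interpolated linearly from a five-concentration, 48-hour dose response in 96-well plates. TGI is the concentration that stops growth completely.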

With `CC(O)C1(CNc2cc(Cl)nc(N)n2)CCC1` (configuration not stated), the TGI in the experiment on 786-0 renal, in the experiment with ACHN renal, in the experiment with BT-549 breast, with CAKI-1 renal, in the experiment on HCC-2998 colon and in the experiment on HCT-15 colon was more than 100 µM throughout. In addition, the TGI in the experiment on HS 578T breast, in the experiment with KM12 colon, with LOX IMVI melanoma, in the experiment on MOLT-4 leukemia, in the experiment on NCI-H226 lung and in the experiment with OVCAR-4 ovarian was more than 100 µM in each case. Further, the TGI in the experiment with PC-3 prostate, with RPMI-8226 leukemia, with SK-MEL-2 melanoma, with SK-MEL-28 melanoma and with SNB-19 CNS was more than 100 µM in each case.
For the compound `O=c1[nH]nc(Cc2ccccc2)n1/N=C/c1ccccc1O`, the TGI in the experiment on 786-0 renal, with A498 renal, with ACHN renal, in the experiment on BT-549 breast, with CAKI-1 renal and with COLO 205 colon was more than 100 µM throughout. In addition, the TGI in the experiment on HCC-2998 colon, with HCT-15 colon, in the experiment with HS 578T breast, in the experiment with KM12 colon, in the experiment with LOX IMVI melanoma and with MOLT-4 leukemia was more than 100 µM throughout. Moreover, the TGI in the experiment with NCI-H226 lung, in the experiment on OVCAR-4 ovarian, in the experiment with RPMI-8226 leukemia, in the experiment on SK-MEL-2 melanoma, in the experiment on SK-MEL-28 melanoma and in the experiment with SNB-19 CNS was more than 100 µM in each case.
On to `Nc1ncnc2c1ncn2[C@@H]1C[C@@H]1CO`, for which the TGI with 786-0 renal, in the experiment with A498 renal, with ACHN renal, with BT-549 breast, in the experiment with HCC-2998 colon and in the experiment with HCT-15 colon was more than 100 µM throughout. Besides, the TGI in the experiment with HS 578T breast, in the experiment with KM12 colon, with LOX IMVI melanoma, with MOLT-4 leukemia, with NCI-H226 lung and in the experiment with PC-3 prostate was more than 100 µM each time. Besides, the TGI with RPMI-8226 leukemia, with SK-MEL-2 melanoma and in the experiment with SNB-19 CNS was more than 100 µM throughout.
Consider `N#Cc1c(N)nc2n[nH]c(N)c2c1-c1ccc(Cl)cc1`, for which the TGI was more than 60.8 µM in the experiment with 786-0 renal; 3.14 µM in the experiment on A498 renal; 9.69 µM in the experiment on ACHN renal; 12.7 µM in the experiment with BT-549 breast; 29.3 µM in the experiment on CAKI-1 renal; more than 100 µM in the experiment with COLO 205 colon. Moreover, the TGI in the experiment with HCC-2998 colon is more than 64.7 µM; with HCT-15 colon, more than 72.6 µM; in the experiment on HS 578T breast, 8.64 µM; in the experiment on KM12 colon, more than 100 µM; with LOX IMVI melanoma, 16.9 µM; in the experiment on MOLT-4 leukemia, more than 100 µM. The TGI in the experiment on NCI-H226 lung is more than 100 µM; in the experiment on OVCAR-4 ovarian, more than 100 µM; in the experiment with PC-3 prostate it was 16.7 µM; with RPMI-8226 leukemia, more than 100 µM; in the experiment on SK-MEL-2 melanoma it was 6.57 µM; in the experiment with SK-MEL-28 melanoma it was more than 100 µM. This compound also yielded a TGI with SNB-19 CNS of more than 59.9 µM.
As to `CC12CC(c3ccccc3O1)C(C(=O)Nc1ccc(Cl)cc1Cl)C(=O)N2` (configuration not stated), the TGI was 43.8 µM in the experiment on 786-0 renal; 67.3 µM in the experiment with ACHN renal; more than 100 µM in the experiment with BT-549 breast; more than 100 µM in the experiment on CAKI-1 renal; more than 100 µM with COLO 205 colon; more than 100 µM in the experiment with HCC-2998 colon. The TGI in the experiment with HCT-15 colon is more than 100 µM; with HS 578T breast it was 47.7 µM; in the experiment with KM12 colon, more than 100 µM; in the experiment with LOX IMVI melanoma it was 49.5 µM; in the experiment on MOLT-4 leukemia, 54.5 µM; with OVCAR-4 ovarian it was 39.6 µM. The TGI in the experiment on PC-3 prostate, in the experiment on RPMI-8226 leukemia, in the experiment on SK-MEL-2 melanoma, in the experiment with SK-MEL-28 melanoma and in the experiment with SNB-19 CNS was more than 100 µM in each case.
`CC(=O)c1c(C)n([O-])c2cc(Cl)c(Cl)cc2[n+]1=O`: the TGI with 786-0 renal is more than 100 µM; with A498 renal, 70.4 µM; with ACHN renal, 67.7 µM; in the experiment with BT-549 breast, more than 100 µM; in the experiment on CAKI-1 renal it was 58.1 µM; in the experiment on COLO 205 colon, 30.1 µM. For the same compound, the TGI with HCC-2998 colon is 57.8 µM; with HCT-15 colon, more than 100 µM; in the experiment with HS 578T breast it was 74 µM; with KM12 colon, 33.5 µM; in the experiment with LOX IMVI melanoma, 46.4 µM; in the experiment on MOLT-4 leukemia it was more than 100 µM. Also, the TGI in the experiment on OVCAR-4 ovarian was 63.8 µM; in the experiment with PC-3 prostate it was more than 100 µM; in the experiment on RPMI-8226 leukemia it was 25.4 µM; with SK-MEL-2 melanoma it was more than 100 µM; in the experiment with SK-MEL-28 melanoma it was more than 100 µM; with SNB-19 CNS it was more than 100 µM.
Consider `CCOC(=O)CN1C(=O)c2ccc(NC(=O)C(=O)O)cc2S1(=O)=O`, for which the TGI in the experiment with 786-0 renal, in the experiment with A498 renal, in the experiment on ACHN renal, in the experiment with BT-549 breast, in the experiment with CAKI-1 renal and in the experiment with COLO 205 colon was more than 100 µM throughout. Besides, the TGI with HCC-2998 colon, in the experiment on HCT-15 colon, in the experiment on HS 578T breast, in the experiment with KM12 colon, in the experiment with LOX IMVI melanoma and in the experiment on MOLT-4 leukemia was more than 100 µM throughout. Further, the TGI in the experiment with NCI-H226 lung, in the experiment on OVCAR-4 ovarian, with PC-3 prostate, in the experiment on RPMI-8226 leukemia, with SK-MEL-2 melanoma and in the experiment with SK-MEL-28 melanoma was more than 100 µM in each case. In addition, the TGI in the experiment on SNB-19 CNS is more than 100 µM.
Turning to `CN(C)C1(N(C)C)Oc2c(c(=O)n(C)c(=O)n2C)C(c2ccccc2)C1(F)F` (configuration not stated), the TGI in the experiment on 786-0 renal, in the experiment with A498 renal, with ACHN renal, with BT-549 breast, in the experiment on CAKI-1 renal and in the experiment with COLO 205 colon was more than 100 µM throughout. The TGI in the experiment with HCC-2998 colon, in the experiment on HCT-15 colon, with KM12 colon, with LOX IMVI melanoma, with MOLT-4 leukemia and with NCI-H226 lung was more than 100 µM throughout. For the same compound, the TGI with OVCAR-4 ovarian, in the experiment with PC-3 prostate, in the experiment on RPMI-8226 leukemia, in the experiment with SK-MEL-2 melanoma, in the experiment with SK-MEL-28 melanoma and in the experiment on SNB-19 CNS was more than 100 µM throughout. In addition, the TGI in the experiment on SNB-75 CNS was more than 100 µM.
